“And” between values parts separate entries of the source, which are not always exact repeats. Equal values may be shown once. Where a name gives a salt, the structure may show the parent alone. Read-outs that look alike come from different tables or passages of the source.

The term EC50 denotes the concentration needed to bring the measured effect to its halfway point.

In one data set the target is T1, BCL-XL (Homo sapiens, UniProt Q07817).
T1 construct: BCL-XL (amino acids 1-212, C-terminal fused to a hexahistidine (6×His) tag); purchased BPS Bioscience (San Diego, Calif., USA); host or cells: E. coli
Kind of data set: Protein-protein interaction assay BCL-XL/Bad BH3 peptide (BCL-XL assay), TR-FRET. Type of data set: binding. The following applies: His-BCL-XL / Bad BH3-derived peptide. A digest of the protocol: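 TR-FRET competition of His-tagged human BCL-XL (1 nM final) with biotinylated Bad BH3 peptide, 11 compound concentrations 0.1 nM–20 μM, in Tris pH 7 buffer with NaCl, KF, DTT, BGG. 10 min pre-incubation, then 1 h at 22 °C plus overnight at 4 °C; 665/620 nm ratio normalized, IC50 from 4-parameter fit.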
Background: In TR-FRET formats the signal depends on donor and acceptor labels being close together.

Data set [1] concerns SUDHL5. Kind of data set: Induction of caspase-3/7 activity (Caspase-Glo 3/7), SUDHL5. Type of data set: cell-based. Particulars: caspase-3/7 induction, SUDHL5 cells, 3 h treatment; median. In outline: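 DLBCL cells treated with compounds for 3 h at 37 °C, then caspase-3/7 activity read by Caspase-Glo 3/7 luminescence. Medium-only background subtracted; EC50 fitted with C0 fixed at 1 and top set to the reference compound's maximal induction.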

The test system of data set [2] is SUDHL5. Nature of the data set: Anti-proliferative effect (CellTiter-Glo, 72 h), SUDHL5. Type of data set: cell-based. The following applies: SUDHL5 cells, antiproliferation, 72 h incubation, median, read-out: Antiproli SUDHL5 [M] (median). In outline:
(§1)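 Cells were treated with compounds for 72 h at 37 °C in a humidified incubator, and viability was measured by CellTiter-Glo luminescence. A parallel day 0 plate, read the same way, gave the time zero baseline.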
Background: Cellular ATP, detected with luciferase, serves as a proxy for viable cell number.

Data set [3] concerns SUDHL10. Nature of the data set: Anti-proliferative effect (CellTiter-Glo, 72 h), SUDHL10. Type of data set: cell-based. The following applies: SUDHL10 cells, antiproliferation, 72 h incubation, median, read-out: Antiproli SUDHL10 [M] (median). In outline:
as §1

In another data set the test system is A2780. Nature of the data set: Anti-proliferative effect (CellTiter-Glo, 72 h), A2780. Type of data set: cell-based. Particulars: A2780 cells, median, read-out: IC50 antiproliferation assay A2780 [M] (median). In outline: as §1
The subject of data set [4] is SUDHL5. Nature of the data set: Induction of cytotoxicity (CellTiter-Glo, 5 h), SUDHL5. The following applies: read-out: Cytotox SUDHL5 [M] (median); SUDHL5 cells, cytotoxicity induction, CellTiter-Glo, 5 h incubation, median.
Data set [5] deals with SUDHL10. Nature of the data set: Induction of cytotoxicity (CellTiter-Glo, 5 h), SUDHL10.
The mark [6] stands for this setting: read-out: Cytotox SUDHL10 [M] (median), SUDHL10 cells, cytotoxicity induction, CellTiter-Glo, 5 h incubation, median.

T1 sequence (Q07817 1-212): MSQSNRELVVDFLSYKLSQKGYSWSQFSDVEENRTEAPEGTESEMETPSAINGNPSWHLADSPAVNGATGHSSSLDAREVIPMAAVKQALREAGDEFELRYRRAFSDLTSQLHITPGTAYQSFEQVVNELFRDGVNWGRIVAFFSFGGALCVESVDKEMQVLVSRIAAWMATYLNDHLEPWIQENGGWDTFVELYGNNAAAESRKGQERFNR

As to `COCCn1nc2c(c1C1CC1)-c1cccc3c(CCCOc4cccc5ccccc45)c(C(=O)O)n(c13)CCCCOC2` (single isomer, unassigned; enantiomer 1) [Example 085, 3-Cyclopropyl-2-(2-methoxyethyl)-7-[3-(naphthalen-1-yloxy)propyl]-2,10,11,12,13,15-hexahydropyrazolo[4′,3′:9,10][1,6]oxazacycloundecino[8,7,6-hi]indole-8-carboxylic acid-N-ethylethanamine Salt (Enantiomer 1)], the IC50 was > 20 µM against BCL-XL; 6.22e-06 M with SUDHL5 [2]; 3.08e-06 M in the data set with SUDHL10 [3]; 2.15e-05 M in the data set on A2780 (Homo sapiens, A2780, 72 h); 3.91e-06 M in the data set on SUDHL5 [4]; 1.97e-05 M in the data set with SUDHL10 [5] (Homo sapiens, SU-DHL10, 5 h, read-out: Cytotox SUDHL10 [M] (median), SUDHL10 cells, cytotoxicity induction, CellTiter-Glo, 5 h incubation, median). In the data set with SUDHL5 [1], this molecule returned a half-maximal effective concentration (EC50) of 3.59 µM.
For `Cc1c2c(nn1C1CC1)COCCCCn1c(C(=O)O)c(CCCOc3cccc4ccccc34)c3cccc-2c31` (single isomer, unassigned; enantiomer 1) [Example 093, 2-cyclopropyl-3-methyl-7-[3-(naphthalen-1-yloxy)propyl]-2,10,11,12,13,15-hexahydropyrazolo[4′,3′:9,10][1,6]oxazacycloundecino[8,7,6-hi]indole-8-carboxylic acid-N-ethylethanamine Salt (Enantiomer 1)], the IC50 is > 20 µM at BCL-XL; 3.38e-06 M in the data set on SUDHL5 [2]; 1.03e-05 M with SUDHL10 [3] (Homo sapiens, SU-DHL10, 72 h); 2.71e-05 M in the data set with A2780 (Homo sapiens, A2780, 72 h); 2.1e-06 M with SUDHL5 [4]; 7.2e-06 M in the data set with SUDHL10 [5] (setting [6]). In the data set with SUDHL5 [1], a half-maximal response (EC50) required 2.83 µM.
With `COCCn1nc2c(c1C)-c1cccc3c(CCCOc4cccc5ccccc45)c(C(=O)O)n(c13)CCCCOC2` (single isomer, unassigned; enantiomer 1) [Example 107, 2-(2-methoxyethyl)-3-methyl-7-[3-(naphthalen-1-yloxy)propyl]-2,10,11,12,13,15-hexahydropyrazolo[4′,3′:9,10][1,6]oxazacycloundecino[8,7,6-hi]indole-8-carboxylic acid-N-ethylethanamine Salt (Enantiomer 1)], the IC50 is > 20 µM at BCL-XL; 3.82e-06 M with SUDHL5 [2]; 5.32e-06 M in the data set with SUDHL10 [3]; > 3.3e-05 M and 2.08e-05 M in the data set with A2780; 1.73e-06 M in the data set on SUDHL5 [4]; 4.65e-06 M with SUDHL10 [5] (setting [6]). Further, a half-maximal response with SUDHL5 [1] (EC50) required 1.47 µM.
For `CCc1c2c(nn1C)CN(C)CCCn1c(C(=O)O)c(CCCOc3cccc4ccccc34)c3ccc(C)c-2c31` (single isomer, unassigned; enantiomer 1) [Example 145, 11-Ethyl-7,10,12-trimethyl-1-[3-(1-naphthyloxy)propyl]-4,5,6,7,8,10-hexahydropyrazolo[3′,4′:7,8][1,5]diazecino[9,10,1-hi]indole-2-carboxylic acid-N-ethylethanamine Salt (Enantiomer 1)], the IC50 is > 20 µM on BCL-XL; 1.85e-06 M in the data set on SUDHL5 [2]; 4.25e-06 M in the data set with SUDHL10 [3]; 1.36e-05 M in the data set on A2780 (Homo sapiens, A2780, 72 h); 1.4e-06 M in the data set on SUDHL5 [4]; 2.4e-06 M in the data set on SUDHL10 [5] (setting [6]). Besides, the EC50 with SUDHL5 [1] came out at 0.889 µM.
For `CCc1c2c(nn1C)COCCCCn1c(C(=O)O)c(CCCOc3cccc4ccccc34)c3cccc-2c31` (single isomer, unassigned; enantiomer 1) [Example 148, 3-Ethyl-2-methyl-7-[3-(1-naphthyloxy)propyl]-2,10,11,12,13,15-hexahydropyrazolo[4′,3′:9,10][1,6]oxazacycloundecino[8,7,6-hi]indole-8-carboxylic acid-N-ethylethanamine Salt (Enantiomer 1)], the IC50 against BCL-XL was > 20 µM; in the data set on SUDHL5 [2] it was 2.56e-06 M; with SUDHL10 [3] (Homo sapiens, SU-DHL10, 72 h), 5.87e-06 M; in the data set on A2780 (Homo sapiens, A2780, 72 h) it was 2e-05 M; in the data set on SUDHL5 [4], 9.08e-07 M; with SUDHL10 [5] (setting [6]) it was 2.4e-06 M. The molecule also displayed a concentration for a half-maximal effect (EC50) in the data set on SUDHL5 [1] of 0.881 µM.
`CCc1c2c(nn1C)COCCCCn1c(C(=O)O)c(CCCOc3cccc4ccccc34)c3ccc(C)c-2c31` (single isomer, unassigned; enantiomer 1) [Example 154, 3-Ethyl-2,4-dimethyl-7-[3-(1-naphthyloxy)propyl]-2,10,11,12,13,15-hexahydropyrazolo[4′,3′:9,10][1,6]oxazacycloundecino[8,7,6-hi]indole-8-carboxylic acid-N-ethylethanamine Salt (Enantiomer 1)]: the IC50 against BCL-XL was > 20 µM; with SUDHL5 [2], 2.26e-06 M; with SUDHL10 [3] (Homo sapiens, SU-DHL10, 72 h), 4.11e-06 M; with A2780 (Homo sapiens, A2780, 72 h), 1.72e-05 M; in the data set with SUDHL5 [4] it was 1.08e-06 M; in the data set on SUDHL10 [5] (setting [6]) it was 2.03e-06 M. Also, a half-maximal response with SUDHL5 [1] (EC50) required 0.661 µM.
Consider `Cn1nc(COc2ccc(N3CCN(S(C)(=O)=O)CC3)cc2)c2c1COCCCCn1c(C(=O)O)c(CCCOc3cccc4ccccc34)c3cccc-2c31` (single isomer, unassigned; enantiomer 2) [Example 1-10, 1-methyl-3-({4-[4-(methylsulfonyl)piperazin-1-yl]phenoxy}methyl)-7-[3-(naphthalen-1-yloxy)propyl]-1,10,11,12,13,15-hexahydropyrazolo[4′,3′:9,10][1,6]oxazacycloundecino[8,7,6-hi]indole-8-carboxylic acid (enantiomer 2)], for which the IC50 against BCL-XL was > 20 µM; with SUDHL5 [2], 1.26e-06 M; in the data set on SUDHL10 [3], 1.35e-06 M; in the data set with A2780, 1.19e-05 M; in the data set with SUDHL5 [4], 4.33e-07 M; with SUDHL10 [5] (setting [6]), 4.74e-07 M. In the data set with SUDHL5 [1], this molecule gave an EC50 of 0.486 µM.
`Cn1nc(COc2ccc(N3CCN(S(=O)(=O)C4CC4)CC3)cc2)c2c1COCCCCn1c(C(=O)O)c(CCCOc3cccc4ccccc34)c3cccc-2c31` (single isomer, unassigned; enantiomer 2) [Example 1-13, 3-({4-[4-(cyclopropylsulfonyl)piperazin-1-yl]phenoxy}methyl)-1-methyl-7-[3-(naphthalen-1-yloxy)propyl]-1,10,11,12,13,15-hexahydropyrazolo[4′,3′:9,10][1,6]oxazacycloundecino[8,7,6-hi]indole-8-carboxylic Acid (Enantiomer 2)]: the IC50 was > 20 µM against BCL-XL; 7.58e-07 M in the data set on SUDHL5 [2]; 1.38e-06 M in the data set with SUDHL10 [3]; 7.74e-06 M in the data set with A2780; 4.1e-07 M in the data set on SUDHL5 [4]; 4.36e-07 M with SUDHL10 [5] (setting [6]). Moreover, the response in the data set on SUDHL5 [1] was half-maximal at 0.324 µM (EC50).
For the molecule `Cc1nn(C)c2c1-c1cccc3c(CCCOc4ccc(F)c5ccccc45)c(C(=O)O)n(c13)CCCCOC2` (single isomer, unassigned; enantiomer 2) [Example 023, 7-{3-[(4-fluoronaphthalen-1-yl)oxy]propyl}-1,3-dimethyl-1,10,11,12,13,15-hexahydropyrazolo[4′3′:9,10][1,6]oxazacycloundecino[8,7,6-hi]indole-8-carboxylic acid-N-ethylethanamine Salt (Enantiomer 2)], the IC50 against BCL-XL is > 20 µM; in the data set with SUDHL5 [2] it was 4.32e-06 M; in the data set on SUDHL10 [3] it was 9.57e-06 M; in the data set with A2780, 2e-05 M and > 3.3e-05 M; with SUDHL5 [4], 1.84e-06 M; in the data set with SUDHL10 [5] (setting [6]), 5.85e-06 M. The EC50 in the data set with SUDHL5 [1] was found to be 2.15 µM.
Turning to `Cc1c2c(nn1CCN1CCOCC1)CN(C)CCCn1c(C(=O)O)c(CCCOc3cccc4ccccc34)c3cccc-2c31` (single isomer, unassigned; enantiomer 2) [Example 061, 7,11-dimethyl-10-[2-(morpholin-4-yl)ethyl]-1-[3-(naphthalen-1-yloxy)propyl]-4,5,6,7,8,10-hexahydropyrazolo[3′,4′:7,8][1,5]diazecino[9,10,1-hi]indole-2-carboxylic Acid (Enantiomer 2)], the IC50 is > 20 µM at BCL-XL; 8.04e-06 M in the data set on SUDHL5 [2]; 8.37e-06 M in the data set with SUDHL10 [3]; 1.14e-05 M in the data set on A2780; 1.63e-05 M in the data set on SUDHL5 [4]; 1.75e-05 M in the data set with SUDHL10 [5] (setting [6]). Further, the response in the data set with SUDHL5 [1] was half-maximal at 21.9 µM (EC50).
As for `Cc1ccc2c(CCCOc3cccc4ccccc34)c(C(=O)O)n3c2c1-c1c(nn(C)c1C)CN(C)CCC3` (single isomer, unassigned; enantiomer 2) [Example 074, 7,10,11,12-tetramethyl-1-[3-(naphthalen-1-yloxy)propyl]-4,5,6,7,8,10-hexahydropyrazolo[3′,4′:7,8][1,5]diazecino[9,10,1-hi]indole-2-carboxylic Acid (Enantiomer 2)], the IC50 against BCL-XL was > 20 µM; in the data set on SUDHL5 [2] it was 1.14e-05 M; with SUDHL10 [3] it was 1.26e-05 M; in the data set with A2780 it was 1.3e-05 M; in the data set on SUDHL5 [4], 1.2e-05 M; in the data set on SUDHL10 [5] (setting [6]) it was 1.17e-05 M. In the data set with SUDHL5 [1], the EC50 is > 33 µM.

Source of the values: patent US10981932B2, “Macrocyclic indole derivatives” (Bayer Aktiengesellschaft, priority 2016, dated 2021).
